Laboratory results taken from ChEMBL document CHEMBL1201862, “PubChem BioAssay data set” (2004).
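The compound was tested at five concentrations on cells cultured in 96-well plates, with a 48-hour exposure period. GI50 is the concentration that inhibits growth by half.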 Active and inactive are the calls of the source. Cut-off read from the data, not from the text of the source: active = GI50 up to about 1.1 µM and inactive = higher.

Columns and labels:
Assay in all cases: growth of human tumour cells (NCI), 48 h
786-0 = tested on: 786-0
A549 = tested on: A549
ACHN = tested on: ACHN
BT-549 = tested on: BT-549
CAKI-1 = tested on: CAKI-1
CCRF-CEM = tested on: CCRF-CEM
COLO 205 = tested on: COLO 205
DU-145 = tested on: DU-145
EKVX = tested on: EKVX
HCC 2998 = tested on: HCC 2998
HCT-116 = tested on: HCT-116
HCT-15 = tested on: HCT-15
HL-60 = tested on: HL-60
HOP-62 = tested on: HOP-62
HT-29 = tested on: HT-29
Hs-578T = tested on: Hs-578T
IGROV-1 = tested on: IGROV-1
K562 = tested on: K562
KM12 = tested on: KM12
LOX IMVI = tested on: LOX IMVI
M14 = tested on: M14
MCF7 = tested on: MCF7
MDA-MB-231 = tested on: MDA-MB-231
MDA-N = tested on: MDA-N
MOLT-4 = tested on: MOLT-4
Malme-3M = tested on: Malme-3M
NCI-H226 = tested on: NCI-H226
NCI-H23 = tested on: NCI-H23
NCI-H460 = tested on: NCI-H460
NCI-H522 = tested on: NCI-H522
NCI/ADR-RES = tested on: NCI/ADR-RES
OVCAR-4 = tested on: OVCAR-4
OVCAR-5 = tested on: OVCAR-5
OVCAR-8 = tested on: OVCAR-8
PC-3 = tested on: PC-3
RPMI-8226 = tested on: RPMI-8226
RXF 393 = tested on: RXF 393
SF-268 = tested on: SF-268
SF-295 = tested on: SF-295
SF-539 = tested on: SF-539
SK-MEL-28 = tested on: SK-MEL-28
SK-MEL-2 = tested on: SK-MEL-2
SK-MEL-5 = tested on: SK-MEL-5
SK-OV-3 = tested on: SK-OV-3
SN12C = tested on: SN12C
SNB-19 = tested on: SNB-19
SNB-75 = tested on: SNB-75
SR = tested on: SR
SW-620 = tested on: SW-620
T47D = tested on: T47D
TK-10 = tested on: TK-10
U-251 = tested on: U-251
UACC-257 = tested on: UACC-257
UACC-62 = tested on: UACC-62
UO-31 = tested on: UO-31
A498 = tested on: A498
HOP-92 = tested on: HOP-92
MDA-MB-435 = tested on: MDA-MB-435
OVCAR-3 = tested on: OVCAR-3

In the case of `O=C1CCC2=C(CCC2)N1CCc1ccc2c(c1)OCO2`, the GI50 (786-0) is reported as > 100 µM (inactive), the GI50 (A549) is reported as 62.1 µM (inactive) and the GI50 (ACHN) is reported as 77.3 µM (inactive). The GI50 (BT-549) was 20.8 µM (inactive), the GI50 (CAKI-1) was 81.8 µM (inactive) and the GI50 (CCRF-CEM) was 29.2 µM (inactive). For the same compound, the GI50 (COLO 205) was 60.3 µM (inactive), the GI50 (DU-145) was > 100 µM (inactive) and the GI50 (EKVX) was 47 µM (inactive). The GI50 (HCC 2998) was > 100 µM (inactive), the GI50 (HCT-116) was 48.2 µM (inactive) and the GI50 (HCT-15) was 43.1 µM. For the same compound, the GI50 (HL-60) was 7.62 µM (inactive), the GI50 (HOP-62) was 94.6 µM (inactive) and the GI50 (HT-29) was 92 µM (inactive). The GI50 (Hs-578T) was 49 µM (inactive), the GI50 (IGROV-1) was 58.7 µM (inactive) and the GI50 (K562) was 25.7 µM (inactive). For the same compound, the GI50 (KM12) was 62.4 µM (inactive), the GI50 (LOX IMVI) was 59.6 µM (inactive) and the GI50 (M14) was 92.9 µM (inactive). The GI50 (MCF7) was 60 µM (inactive), the GI50 (MDA-MB-231) was > 100 µM (inactive) and the GI50 (MDA-N) was > 100 µM (inactive). For the same compound, the GI50 (MOLT-4) was 15.4 µM (inactive), the GI50 (Malme-3M) was > 100 µM (inactive) and the GI50 (NCI-H226) was 20.5 µM (inactive). The GI50 (NCI-H23) was 38 µM (inactive), the GI50 (NCI-H460) was 48.2 µM (inactive) and the GI50 (NCI-H522) was 61.1 µM (inactive). For the same compound, the GI50 (NCI/ADR-RES) was 43 µM (inactive), the GI50 (OVCAR-4) was > 100 µM (inactive) and the GI50 (OVCAR-5) was 42.6 µM (inactive). For the same compound, the GI50 (OVCAR-8) was > 10 µM (inactive), the GI50 (PC-3) was 32.5 µM (inactive) and the GI50 (RPMI-8226) was < 0.01 µM (active). The GI50 (RXF 393) was 1.21 µM (inactive), the GI50 (SF-268) was 77.6 µM (inactive) and the GI50 (SF-295) was 55.3 µM (inactive). For the same compound, the GI50 (SF-539) was > 100 µM (inactive), the GI50 (SK-MEL-28) was > 100 µM (inactive) and the GI50 (SK-MEL-2) was 29.9 µM (inactive). The GI50 (SK-MEL-5) was 24.5 µM (inactive), the GI50 (SK-OV-3) was > 100 µM (inactive) and the GI50 (SN12C) was 95.1 µM (inactive). The GI50 (SNB-19) was 81.7 µM (inactive), the GI50 (SNB-75) was 29.2 µM (inactive) and the GI50 (SR) was 30.9 µM (inactive). For the same compound, the GI50 (SW-620) was > 100 µM (inactive), the GI50 (T47D) was 37 µM (inactive) and the GI50 (TK-10) was 76.9 µM (inactive). For the same compound, the GI50 (U-251) was 45.7 µM (inactive), the GI50 (UACC-257) was 84.9 µM (inactive) and the GI50 (UACC-62) was 65 µM (inactive). The GI50 (UO-31) was 21.6 µM (inactive).
For `O=c1nc(N2CCCCC2)sc2[nH]c3ccccc3c12`, the GI50 (786-0) was > 100 µM (inactive), the GI50 (A498) was > 100 µM (inactive) and the GI50 (A549) was > 100 µM (inactive). For the same compound, the GI50 (ACHN) was > 100 µM (inactive), the GI50 (BT-549) was > 100 µM (inactive) and the GI50 (CAKI-1) was > 100 µM (inactive). The GI50 (COLO 205) was > 100 µM (inactive), the GI50 (DU-145) was > 100 µM (inactive) and the GI50 (EKVX) was > 100 µM (inactive). For the same compound, the GI50 (HCT-15) was greater than 100 µM, the GI50 (HL-60) was > 100 µM (inactive) and the GI50 (HOP-62) was 36.2 µM (inactive). The GI50 (HOP-92) was 55.3 µM (inactive), the GI50 (HT-29) was 62.4 µM (inactive) and the GI50 (Hs-578T) was > 100 µM (inactive). For the same compound, the GI50 (IGROV-1) was 78 µM (inactive), the GI50 (K562) was > 100 µM (inactive) and the GI50 (KM12) was > 100 µM (inactive). The GI50 (LOX IMVI) was 74.8 µM (inactive), the GI50 (M14) was 34.8 µM (inactive) and the GI50 (MDA-MB-231) was 78.7 µM (inactive). The GI50 (MDA-MB-435) was > 100 µM (inactive), the GI50 (MDA-N) was > 100 µM (inactive) and the GI50 (MOLT-4) was > 100 µM (inactive). For the same compound, the GI50 (Malme-3M) was 68.4 µM (inactive), the GI50 (NCI-H23) was 12.2 µM (inactive) and the GI50 (NCI-H460) was 98.2 µM (inactive). For the same compound, the GI50 (NCI-H522) was > 100 µM (inactive), the GI50 (NCI/ADR-RES) was 12.6 µM (inactive) and the GI50 (OVCAR-3) was 88.9 µM (inactive). The GI50 (OVCAR-4) was > 100 µM (inactive), the GI50 (OVCAR-5) was 11.1 µM (inactive) and the GI50 (OVCAR-8) was > 100 µM (inactive). For the same compound, the GI50 (PC-3) was > 100 µM (inactive), the GI50 (RPMI-8226) was 40.9 µM (inactive) and the GI50 (SF-268) was 54.3 µM (inactive). The GI50 (SF-295) was > 100 µM (inactive), the GI50 (SF-539) was > 100 µM (inactive) and the GI50 (SK-MEL-28) was > 100 µM (inactive). The GI50 (SK-MEL-2) was > 100 µM (inactive), the GI50 (SK-MEL-5) was > 100 µM (inactive) and the GI50 (SK-OV-3) was > 100 µM (inactive). For the same compound, the GI50 (SN12C) was > 100 µM (inactive), the GI50 (SNB-19) was 63.1 µM (inactive) and the GI50 (SNB-75) was > 100 µM (inactive). The GI50 (SR) was > 100 µM (inactive), the GI50 (SW-620) was > 100 µM (inactive) and the GI50 (T47D) was > 100 µM (inactive). The GI50 (TK-10) was 66.2 µM (inactive), the GI50 (U-251) was 96.4 µM (inactive) and the GI50 (UACC-257) was > 100 µM (inactive). For the same compound, the GI50 (UACC-62) was > 100 µM (inactive) and the GI50 (UO-31) was 24.8 µM (inactive).
With `CCCc1c2c3ccccc3nc-2nc2ccccn12` the GI50 (786-0) was 28.4 µM (inactive), the GI50 (A498) was > 100 µM (inactive) and the GI50 (A549) was 83.4 µM (inactive). The GI50 (ACHN) was 46.7 µM (inactive), the GI50 (BT-549) was > 100 µM (inactive) and the GI50 (CAKI-1) was > 100 µM (inactive). For the same compound, the GI50 (CCRF-CEM) was > 100 µM (inactive), the GI50 (COLO 205) was 97.7 µM (inactive) and the GI50 (DU-145) was > 100 µM (inactive). The GI50 (EKVX) was > 100 µM (inactive), the GI50 (HCT-15) was greater than 100 µM and the GI50 (HL-60) was 35.6 µM (inactive). For the same compound, the GI50 (HOP-62) was 25.4 µM (inactive), the GI50 (HOP-92) was 36.5 µM (inactive) and the GI50 (HT-29) was 43.6 µM (inactive). The GI50 (Hs-578T) was > 100 µM (inactive), the GI50 (IGROV-1) was 63.5 µM (inactive) and the GI50 (K562) was 52.6 µM (inactive). The GI50 (KM12) was 49.4 µM (inactive), the GI50 (LOX IMVI) was 41.4 µM (inactive) and the GI50 (M14) was 26.7 µM (inactive). For the same compound, the GI50 (MDA-MB-231) was 72.1 µM (inactive), the GI50 (MDA-MB-435) was 94.4 µM (inactive) and the GI50 (MDA-N) was 74.5 µM (inactive). For the same compound, the GI50 (MOLT-4) was 67.5 µM (inactive), the GI50 (Malme-3M) was 61.7 µM (inactive) and the GI50 (NCI-H23) was 0.863 µM (active). The GI50 (NCI-H460) was 32.8 µM (inactive), the GI50 (NCI-H522) was > 100 µM (inactive) and the GI50 (NCI/ADR-RES) was > 100 µM (inactive). For the same compound, the GI50 (OVCAR-3) was 56 µM (inactive), the GI50 (OVCAR-4) was 50.5 µM (inactive) and the GI50 (OVCAR-5) was 25.2 µM (inactive). The GI50 (OVCAR-8) was 71.8 µM (inactive), the GI50 (PC-3) was 64.6 µM (inactive) and the GI50 (RPMI-8226) was 41.9 µM (inactive). For the same compound, the GI50 (SF-268) was 24.4 µM (inactive), the GI50 (SF-295) was 49.8 µM (inactive) and the GI50 (SF-539) was > 100 µM (inactive). The GI50 (SK-MEL-28) was > 100 µM (inactive), the GI50 (SK-MEL-2) was > 100 µM (inactive) and the GI50 (SK-MEL-5) was > 100 µM (inactive). For the same compound, the GI50 (SK-OV-3) was > 100 µM (inactive), the GI50 (SN12C) was 73.5 µM (inactive) and the GI50 (SNB-19) was > 100 µM (inactive). For the same compound, the GI50 (SNB-75) was > 100 µM (inactive), the GI50 (SR) was 49.1 µM (inactive) and the GI50 (SW-620) was 36.4 µM (inactive). The GI50 (T47D) was > 100 µM (inactive), the GI50 (TK-10) was 52.7 µM (inactive) and the GI50 (U-251) was 63.7 µM (inactive). The GI50 (UACC-257) was > 100 µM (inactive), the GI50 (UACC-62) was 72.3 µM (inactive) and the GI50 (UO-31) was 56.8 µM (inactive).
